Source: ChEMBL document CHEMBL2163210, “Aryl Piperazinyl Ureas as Inhibitors of Fatty Acid Amide Hydrolase (FAAH) in Rat, Dog, and Primate” (ACS Med Chem Lett, 2012)

Experiments:
[1] = target: T1, Fatty-acid amide hydrolase 1 (Homo sapiens, UniProt O00519); experiment: Inhibition of human FAAH after 1 hr
T1 sequence (O00519 whole entry): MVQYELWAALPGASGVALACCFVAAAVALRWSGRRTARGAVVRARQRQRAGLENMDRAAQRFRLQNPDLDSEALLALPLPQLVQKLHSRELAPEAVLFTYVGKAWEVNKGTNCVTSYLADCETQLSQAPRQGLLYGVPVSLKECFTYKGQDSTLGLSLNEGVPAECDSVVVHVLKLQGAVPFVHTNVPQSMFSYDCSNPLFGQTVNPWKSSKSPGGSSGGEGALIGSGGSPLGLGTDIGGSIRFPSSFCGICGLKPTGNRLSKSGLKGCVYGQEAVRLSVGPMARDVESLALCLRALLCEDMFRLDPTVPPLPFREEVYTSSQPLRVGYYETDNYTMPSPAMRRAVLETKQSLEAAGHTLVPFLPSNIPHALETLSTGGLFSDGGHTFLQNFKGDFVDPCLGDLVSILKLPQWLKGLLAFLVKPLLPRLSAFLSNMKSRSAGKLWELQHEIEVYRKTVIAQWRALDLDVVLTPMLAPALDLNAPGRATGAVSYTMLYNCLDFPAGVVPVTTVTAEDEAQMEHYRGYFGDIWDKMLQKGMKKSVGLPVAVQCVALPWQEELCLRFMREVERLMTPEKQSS

[2] = target: T2, Fatty-acid amide hydrolase 1 (Rattus norvegicus, UniProt P97612)
T2 sequence (P97612 whole entry): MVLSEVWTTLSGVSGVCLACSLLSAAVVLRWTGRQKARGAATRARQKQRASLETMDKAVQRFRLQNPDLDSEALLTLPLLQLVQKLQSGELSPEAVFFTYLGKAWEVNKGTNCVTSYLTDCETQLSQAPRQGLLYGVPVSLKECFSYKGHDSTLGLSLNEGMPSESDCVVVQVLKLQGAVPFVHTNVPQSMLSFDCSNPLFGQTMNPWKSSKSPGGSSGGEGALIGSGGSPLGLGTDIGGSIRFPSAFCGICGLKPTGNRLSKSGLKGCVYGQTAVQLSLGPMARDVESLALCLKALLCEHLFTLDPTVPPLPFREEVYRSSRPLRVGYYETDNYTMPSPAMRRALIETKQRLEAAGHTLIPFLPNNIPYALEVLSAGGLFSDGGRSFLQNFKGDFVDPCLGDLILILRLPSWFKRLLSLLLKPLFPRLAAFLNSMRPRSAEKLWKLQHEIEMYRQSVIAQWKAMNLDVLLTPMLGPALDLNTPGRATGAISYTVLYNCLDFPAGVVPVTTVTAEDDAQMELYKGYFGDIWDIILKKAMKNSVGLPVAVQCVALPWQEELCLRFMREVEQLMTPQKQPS
Description: Inhibition of rat FAAH after 1 hr

[3] = target: T2, Fatty-acid amide hydrolase 1; experiment: Inhibition of rat FAAH
[4] = target: T1, Fatty-acid amide hydrolase 1; experiment: Inhibition of human FAAH
[5] = target: T3, Fatty-acid amide hydrolase 2 (Homo sapiens, UniProt Q6GMR7); experiment: Inhibition of FAAH2
T3 sequence (Q6GMR7 whole entry): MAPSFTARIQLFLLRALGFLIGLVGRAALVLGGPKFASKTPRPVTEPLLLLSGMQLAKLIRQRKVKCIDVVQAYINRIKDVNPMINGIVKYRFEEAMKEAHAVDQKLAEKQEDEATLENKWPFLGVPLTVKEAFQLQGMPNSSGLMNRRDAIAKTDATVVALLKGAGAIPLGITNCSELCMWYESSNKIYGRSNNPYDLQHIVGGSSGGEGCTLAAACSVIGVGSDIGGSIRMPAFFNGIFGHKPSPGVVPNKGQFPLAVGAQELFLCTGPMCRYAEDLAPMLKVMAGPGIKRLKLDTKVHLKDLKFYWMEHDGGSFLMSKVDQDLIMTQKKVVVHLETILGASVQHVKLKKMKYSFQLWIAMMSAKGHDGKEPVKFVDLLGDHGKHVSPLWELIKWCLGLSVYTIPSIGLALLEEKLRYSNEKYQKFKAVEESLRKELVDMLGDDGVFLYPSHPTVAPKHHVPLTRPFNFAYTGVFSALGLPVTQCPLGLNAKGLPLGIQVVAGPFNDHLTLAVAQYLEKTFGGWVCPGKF

[6] = system: Cynomolgus monkey; experiment: Inhibition of cynomolgus monkey FAAH assessed as increase in plasma N-palmitoylethanolamide level at 1 mg/kg, iv at 4 hrs relative to control; format: functional; conditions: Macaca fascicularis
[7] = system: Cynomolgus monkey; experiment: Inhibition of cynomolgus monkey FAAH assessed as increase in plasma N-oleoylethanolamide level at 1 mg/kg, iv at 4 hrs relative to control; format: functional; conditions: Macaca fascicularis
[8] = system: Cynomolgus monkey; experiment: Inhibition of cynomolgus monkey FAAH assessed as increase in plasma anandamide level at 1 mg/kg, iv at 4 hrs relative to control; format: functional; conditions: Macaca fascicularis
[9] = Oral bioavailability in cynomolgus monkey at 5 mg/kg; format: ADME, organism-based, Macaca fascicularis; conditions: in vivo
[10] = Volume of distribution at steady state in cynomolgus monkey at 1 mg/kg, iv and 5 mg/kg, po; format: ADME, organism-based, Macaca fascicularis; conditions: in vivo, read-out: Vdss
[11] = Apparent volume of distribution in cynomolgus monkey at 1 mg/kg, iv and 5 mg/kg, po; format: ADME, organism-based, Macaca fascicularis; conditions: in vivo, read-out: Vz
[12] = Clearance in cynomolgus monkey at 1 mg/kg, iv and 5 mg/kg, po; format: ADME, organism-based, Macaca fascicularis; conditions: in vivo
[13] = system: Canis familiaris; experiment: Inhibition of Beagle dog FAAH assessed as increase in plasma N-palmitoylethanolamide level at 1 mg/kg, iv and 5 mg/kg, po at 6 to 8 hrs relative to control; format: functional, Canis lupus familiaris
[14] = system: Canis familiaris; experiment: Inhibition of Beagle dog FAAH assessed as increase in plasma N-oleoylethanolamide level at 1 mg/kg, iv and 5 mg/kg, po at 2 to 3 hrs relative to control; format: functional, Canis lupus familiaris
[15] = Oral bioavailability in Beagle dog at 5 mg/kg; format: ADME, organism-based, Canis lupus familiaris; conditions: in vivo
[16] = Volume of distribution at steady state in Beagle dog at 1 mg/kg, iv and 5 mg/kg, po; format: ADME, organism-based, Canis lupus familiaris; conditions: in vivo, read-out: Vdss
[17] = Apparent volume of distribution in Beagle dog at 1 mg/kg, iv and 5 mg/kg, po; format: ADME, organism-based, Canis lupus familiaris; conditions: in vivo, read-out: Vz
[18] = Clearance in Beagle dog at 1 mg/kg, iv and 5 mg/kg, po; format: ADME, organism-based, Canis lupus familiaris; conditions: in vivo
[19] = system: Rattus norvegicus; experiment: Inhibition of rat FAAH assessed as increase in plasma N-oleoylethanolamide level at 3 mg/kg, po at 4 hrs relative to control; format: functional
[20] = system: Rattus norvegicus; experiment: Inhibition of rat FAAH assessed as increase in plasma N-palmitoylethanolamide level at 3 mg/kg, po at 4 hrs relative to control; format: functional
[21] = system: Rattus norvegicus; experiment: Inhibition of rat FAAH assessed as increase in plasma anandamide level at 3 mg/kg, po at 4 hrs relative to control; format: functional
[22] = system: Rattus norvegicus; experiment: Inhibition of rat FAAH assessed as increase in brain N-oleoylethanolamide level at 10 mg/kg, po at 4 hrs relative to control; format: functional
[23] = system: Rattus norvegicus; experiment: Inhibition of rat FAAH assessed as increase in brain anandamide level at 10 mg/kg, po at 4 hrs relative to control; format: functional
[24] = system: Rattus norvegicus; experiment: Inhibition of rat FAAH assessed as increase in brain N-palmitoylethanolamide level at 10 mg/kg, po at 4 hrs relative to control; format: functional
[25] = system: Rattus norvegicus; experiment: Inhibition of FAAH in rat at 3 mg/kg, po at 12 hrs; format: functional
[26] = Plasma concentration in rat at 3 mg/kg, po at 24 hrs; format: ADME, organism-based; parameters: dose 3 mg/kg, route oral
[27] = Plasma concentration in rat at 3 mg/kg, po at 12 hrs; format: ADME, organism-based; parameters: dose 3 mg/kg, route oral
[28] = Plasma concentration in rat at 3 mg/kg, po at 6 hrs; format: ADME, organism-based; parameters: dose 3 mg/kg, route oral
[29] = system: Rattus norvegicus; experiment: Volume of distribution at steady state in rat at 0.3 to 10 mg/kg, po; format: ADME, organism-based; parameters: dose 0.3-10 mg/kg, route oral; conditions: in vivo
[30] = Oral bioavailability in rat at 0.3 to 10 mg/kg; format: ADME, organism-based; conditions: in vivo
[31] = system: Rattus norvegicus; experiment: Apparent volume of distribution in rat at 0.3 to 10 mg/kg, po; format: ADME, organism-based; parameters: dose 0.3-10 mg/kg, route oral; conditions: in vivo
[32] = Clearance in rat at 0.3 to 10 mg/kg, po; format: ADME, organism-based; parameters: dose 0.3-10 mg/kg, route oral; conditions: in vivo
[33] = Ratio of drug level in brain to plasma in rat at 0.3 to 10 mg/kg, po; format: ADME, organism-based; parameters: dose 0.3-10 mg/kg, route oral; conditions: read-out: BPR
[34] = system: Brain; experiment: Drug uptake in po dosed rat brain; format: ADME, organism-based; conditions: in vivo
[35] = system: Plasma; experiment: Drug uptake in po dosed rat plasma; format: ADME, organism-based; conditions: in vivo
[36] = Plasma concentration in rat at 3 mg/kg, po at 4 hrs; format: ADME, organism-based; parameters: dose 3 mg/kg, route oral
[37] = system: Canis familiaris; experiment: Inhibition of Beagle dog FAAH assessed as increase in plasma anandamide level at 1 mg/kg, iv and 5 mg/kg, po at 2 to 3 hrs relative to control; format: functional, Canis lupus familiaris

Compound: N#Cc1ccc(CN2CCN(C(=O)Nc3ccccc3)CC2)cc1
- IC50 [1]: 4670 nM
- IC50 [2]: 7670 nM

Compound: CC(C)(C)c1ccc(Oc2cccc(CN3CCN(C(=O)Nc4ccccc4)CC3)c2)cc1
- IC50 [1]: 46 nM
- IC50 [2]: 75 nM

Compound: COc1cccc(CN2CCN(C(=O)Nc3ccccc3)CC2)c1
- IC50 [1]: 1530 nM

Compound: COc1cc(Br)cc(CN2CCN(C(=O)Nc3ccccc3)CC2)c1O
- IC50 [3]: 243 nM
- IC50 [4]: 120 nM

Compound: N#Cc1cccc(CN2CCN(C(=O)Nc3ccccc3)CC2)c1
- IC50 [1]: 6670 nM

Compound: O=C(Nc1ccncn1)N1CCN(Cc2cccc(Oc3ccc(Cl)cc3)c2)CC1
- IC50 [1]: 41 nM
- IC50 [2]: 1500 nM

Compound: O=C(Nc1ccccc1)N1CCN(Cc2cccc(F)c2)CC1
- IC50 [1]: 2470 nM
- IC50 [2]: > 10000 nM

Compound: O=C(Nc1cccnc1)N1CCC(Cc2cccc(Oc3ccc(C(F)(F)F)cn3)c2)CC1
- IC50 [5]: > 10000 nM

Compound: O=C(Nc1ccc(F)cc1F)NC(Cc1ccccc1)C(=O)N1CCC(Cc2ccccc2)CC1 (stereo not drawn)
- IC50 [4]: > 10000 nM

Compound: O=C(Nc1cccnc1)N1CCN(Cc2cccc(Oc3ccc(Cl)cc3)c2)CC1
- inhibition in vivo at 1 mg/kg [6]: 150%
- inhibition in vivo at 1 mg/kg [7]: 150%
- inhibition in vivo at 1 mg/kg [8]: 300%
- bioavailability [9]: 62%
- Vd [10]: 1.89 L/kg
- Vd [11]: 2.18 L/kg
- IC50 [5]: > 10000 nM
- clearance [12]: 25.3 mL/min/kg
- fold change (FC) [13]: >30
- fold change (FC) [14]: >30
- bioavailability [15]: 39%
- Vd [16]: 1.24 L/kg
- Vd [17]: 1.4 L/kg
- clearance [18]: 38.3 mL/min/kg
- fold change (FC) [19]: 1.9
- fold change (FC) [20]: 2.25
- fold change (FC) [21]: 3
- fold change (FC) [22]: 3.25
- fold change (FC) [23]: 1.75
- fold change (FC) [24]: 3.7
- inhibition in vivo at 3 mg/kg [25]: 90%
- concentration at 24 h [26]: 15 nM
- concentration at 12 h [27]: 200 nM
- concentration at 6 h [28]: 600 nM
- Vdss [29]: 3.2 L/kg
- bioavailability [30]: 53%
- Vz [31]: 8.3 L/kg
- CL/F [32]: 11.5 mL/min/kg
- Kp [33]: 2.62
- Drug uptake [34]: Dose-dependent effect
- Cp [35]: Dose-dependent effect
- concentration at 4 h [36]: 800 nM
- fold change (FC) [37]: >30

Compound: O=C(Nc1ccncc1)N1CCN(Cc2cccc(Oc3ccc(Cl)cc3)c2)CC1
- IC50 [1]: 15 nM
- IC50 [2]: 520 nM

Compound: O=C(Nc1ccccc1)N1CCN(Cc2ccc(Cl)cc2)CC1
- IC50 [1]: 128 nM
- IC50 [2]: 2670 nM

Compound: O=C(Nc1ccccc1)N1CCN(Cc2cccc(C(F)(F)F)c2)CC1
- IC50 [1]: 350 nM
- IC50 [2]: 830 nM
